Reference: patent publication EP0407583A1, “DERIVATIVES OF DICHLOR[…] ACYLAMIDO[…] AND INSECTICIDAL, FU[…] HEMATOCIDAL PREPARATIONS BASED ON THEM” (priority 1989, dated 1990)

Columns and labels:
Aspergillus niger [1] = experiment: Inhibition of phytopathogenic fungi growth, laboratory test on potato-dextrose agar; assay type: cell-based; details: active principle 0.01 % by mass in potato-dextrose agar
Method: (§1) A fungicidal composition based on this compound was prepared in the form of a 0.01% solution thereof in distilled water. A fungicidal action of the composition, according to the invention, was tested for inhibition of vegetative fungi growth such as Fusarium moniliforme, Ventura inaequalis, Rhyzoctonia ciolaceae, Botrytis cinereae, Verticillium albo-atrum, Diplodia zeae, Fusarium oxysporum, Rhoma betae, Rhyzoctonia aderholdii, Aspergillus niger, Alternaria sobani, Botrytis allii, Aspergillus fumigatis, Fusarium culmorum, Penicillium cyclopium affecting potato, sugar beet, cotton seeds either in laboratory or field conditions. For testing it to the Petri dishes containing potato-dextrose agar the composition of the invention was.added at the concentration of an active principle of 0.01 % by mass. The Petri dishes containing the same agar culture were inoculated with a mycelium of phytopathogenic fungi. For control dishes the phytopathogenic fungi were inoculated on agar without using the composition of the invention. A fungicidal effect of the composition, according to the invention was tested in comparison with the known fungicidal compositions based on 2,3-dichloro-1,4-naphthoquinone, zinc N,N'-ethylene-bis-dithiocarbamate and tetramethylthiuram disulphide.

Rhyzoctonia violaceae [2] = experiment: as above; assay type: cell-based; details: active principle 0.01 % by mass in potato-dextrose agar
Method: as §1

Rhoma betae [3] = experiment: as above; assay type: cell-based; details: active principle 0.01 % by mass in potato-dextrose agar
Method: as §1

Diplodia zeae [4] = experiment: as above; assay type: cell-based; details: active principle 0.01 % by mass in potato-dextrose agar
Method: as §1

Rhyzoctonia aderholdii [5] = experiment: as above; assay type: cell-based; details: active principle 0.01 % by mass in potato-dextrose agar
Method: as §1

Alternaria sobani [6] = experiment: as above; assay type: cell-based; details: active principle 0.01 % by mass in potato-dextrose agar
Method: as §1

Botrytis allii [7] = experiment: as above; assay type: cell-based; details: active principle 0.01 % by mass in potato-dextrose agar
Method: as §1

Fusarium moniliforme [8] = experiment: as above; assay type: cell-based; details: active principle 0.01 % by mass in potato-dextrose agar
Method: as §1

Verticillium albo-atrum [9] = experiment: as above; assay type: cell-based; details: active principle 0.01 % by mass in potato-dextrose agar
Method: as §1

Fusarium culmorum [10] = experiment: as above; assay type: cell-based; details: active principle 0.01 % by mass in potato-dextrose agar
Method: as §1

Fusarium oxysporum [11] = experiment: as above; assay type: cell-based; details: active principle 0.01 % by mass in potato-dextrose agar
Method: as §1

Penicillium cyclopium [12] = experiment: as above; assay type: cell-based; details: active principle 0.01 % by mass in potato-dextrose agar
Method: as §1

Aspergillus fumigatis [13] = experiment: as above; assay type: cell-based; details: active principle 0.01 % by mass in potato-dextrose agar
Method: as §1

Botrytis cinereae [14] = experiment: as above; assay type: cell-based; details: active principle 0.01 % by mass in potato-dextrose agar
Method: as §1

Venturia inaequalis [15] = experiment: as above; assay type: cell-based; details: active principle 0.01 % by mass in potato-dextrose agar
Method: as §1

Aspergillus niger [16] = experiment: Inhibition of phytopathogenic fungi, field test on affected potato plants; assay type: in vivo; details: 5 m^2 plots of affected potato plants sprayed
Text: (§2) For field tests the plots of 5 m^2 in size with potato plants affected by Fusarium moniliforme, Venturia inaequalis, Rhyzoctonia violaceae, Botrytis cinereae, Verticillium albo-atrum, Diplodia zeae, Fusarium oxysporum, Rhoma betae, Rhyzoctonia aderholdii, Aspergillus niger, Alternaria sobani, Botrytis allii, Aspergillus fumigatis, Fusarium culmorum, Penicillium cyclopium were sprayed with the fungicide of the invention. To compare, the similar plots of the affected potato plants were aprayed with the known compositions indicated above.

Rhyzoctonia violaceae [17] = experiment: as above; assay type: in vivo; details: 5 m^2 plots of affected potato plants sprayed
Text: as §2

Rhoma betae [18] = experiment: as above; assay type: in vivo; details: 5 m^2 plots of affected potato plants sprayed
Text: as §2

Diplodia zeae [19] = experiment: as above; assay type: in vivo; details: 5 m^2 plots of affected potato plants sprayed
Text: as §2

Rhyzoctonia aderholdii [20] = experiment: as above; assay type: in vivo; details: 5 m^2 plots of affected potato plants sprayed
Text: as §2

Alternaria sobani [21] = experiment: as above; assay type: in vivo; details: 5 m^2 plots of affected potato plants sprayed
Text: as §2

Botrytis allii [22] = experiment: as above; assay type: in vivo; details: 5 m^2 plots of affected potato plants sprayed
Text: as §2

Fusarium moniliforme [23] = experiment: as above; assay type: in vivo; details: 5 m^2 plots of affected potato plants sprayed
Text: as §2

Verticillium albo-atrum [24] = experiment: as above; assay type: in vivo; details: 5 m^2 plots of affected potato plants sprayed
Text: as §2

Fusarium culmorum [25] = experiment: as above; assay type: in vivo; details: 5 m^2 plots of affected potato plants sprayed
Text: as §2

Fusarium oxysporum [26] = experiment: as above; assay type: in vivo; details: 5 m^2 plots of affected potato plants sprayed
Text: as §2

Penicillium cyclopium [27] = experiment: as above; assay type: in vivo; details: 5 m^2 plots of affected potato plants sprayed
Text: as §2

Aspergillus fumigatis [28] = experiment: as above; assay type: in vivo; details: 5 m^2 plots of affected potato plants sprayed
Text: as §2

Botrytis cinereae [29] = experiment: as above; assay type: in vivo; details: 5 m^2 plots of affected potato plants sprayed
Text: as §2

Venturia inaequalis [30] = experiment: as above; assay type: in vivo; details: 5 m^2 plots of affected potato plants sprayed
Text: as §2

Solubility (qualitative) = details: water, alcohols, acetone

SMILES	Inhibition of growth of phytopathogenic fungi colonies, % Aspergillus niger test laboratory (Aspergillus niger [1]) [%]	Inhibition of growth of phytopathogenic fungi colonies, % Rhyzoctonia violaceae test laboratory (Rhyzoctonia violaceae [2]) [%]	Inhibition of growth of phytopathogenic fungi colonies, % Rhoma betae test laboratory (Rhoma betae [3]) [%]	Inhibition of growth of phytopathogenic fungi colonies, % Diplodia zeae test laboratory (Diplodia zeae [4]) [%]	Inhibition of growth of phytopathogenic fungi colonies, % Rhyzoctonia aderholdii test laboratory (Rhyzoctonia aderholdii [5]) [%]	Inhibition of growth of phytopathogenic fungi colonies, % Alternaria sobani test laboratory (Alternaria sobani [6]) [%]	Inhibition of growth of phytopathogenic fungi colonies, % Botrytis allii test laboratory (Botrytis allii [7]) [%]	Inhibition of growth of phytopathogenic fungi colonies, % Fusatium monili-forme test laboratory (Fusarium moniliforme [8]) [%]	Inhibition of growth of phytopathogenic fungi colonies, % Verticillium albo--atrum test laboratory (Verticillium albo-atrum [9]) [%]	Inhibition of growth of phytopathogenic fungi colonies, % Fusarium culmorum Tests laboratory (Fusarium culmorum [10]) [%]	Inhibition of growth of phytopathogenic fungi colonies, % Fusarium oxysporum test laboratory (Fusarium oxysporum [11]) [%]	Inhibition of growth of phytopathogenic fungi colonies, % Penicillium cyclopium Tests laboratory (Penicillium cyclopium [12]) [%]	Inhibition of growth of phytopathogenic fungi colonies, % Aspergillus fumigatis Tests laboratory (Aspergillus fumigatis [13]) [%]	Inhibition of growth of phytopathogenic fungi colonies, % Botrytis cinereae test laboratory (Botrytis cinereae [14]) [%]	Inhibition of growth of phytopathogenic fungi colonies, % Venturia inaequalis test laboratory (Venturia inaequalis [15]) [%]	Inhibition of growth of phytopathogenic fungi colonies, % Aspergillus niger test field (Aspergillus niger [16]) [%]	Inhibition of growth of phytopathogenic fungi colonies, % Rhyzoctonia violaceae test field (Rhyzoctonia violaceae [17]) [%]	Inhibition of growth of phytopathogenic fungi colonies, % Rhoma betae test field (Rhoma betae [18]) [%]	Inhibition of growth of phytopathogenic fungi colonies, % Diplodia zeae test field (Diplodia zeae [19]) [%]	Inhibition of growth of phytopathogenic fungi colonies, % Rhyzoctonia aderholdii test field (Rhyzoctonia aderholdii [20]) [%]	further results
O=C(NP(=O)(Nc1ccc(Cl)cc1[N+](=O)[O-])Nc1ccc(Cl)cc1[N+](=O)[O-])c1ccc(Cl)cc1 [Example 14, para-chlorobenzoylamidophosphoric acid di-para-chloro--ortho-nitroanilide]	6	35	68	100	100	100	100	56	40	100	50	79	100	0	50	5	34	67	100	100	Inhibition of growth of phytopathogenic fungi colonies, % Alternaria sobani test field (Alternaria sobani [21]): 93%; Inhibition of growth of phytopathogenic fungi colonies, % Botrytis allii test field (Botrytis allii [22]): 98%; Inhibition of growth of phytopathogenic fungi colonies, % Fusatium monili-forme test field (Fusarium moniliforme [23]): 55%; Inhibition of growth of phytopathogenic fungi colonies, % Verticillium albo--atrum test field (Verticillium albo-atrum [24]): 39%; Inhibition of growth of phytopathogenic fungi colonies, % Fusarium culmorum Tests field (Fusarium culmorum [25]): 100%; Inhibition of growth of phytopathogenic fungi colonies, % Fusarium oxysporum test field (Fusarium oxysporum [26]): 48%; Inhibition of growth of phytopathogenic fungi colonies, % Penicillium cyclopium Tests field (Penicillium cyclopium [27]): 71%; Inhibition of growth of phytopathogenic fungi colonies, % Aspergillus fumigatis Tests field (Aspergillus fumigatis [28]): 93%; Inhibition of growth of phytopathogenic fungi colonies, % Botrytis cinereae test field (Botrytis cinereae [29]): 0%; Inhibition of growth of phytopathogenic fungi colonies, % Venturia inaequalis test field (Venturia inaequalis [30]): 49%; solubility (Solubility (qualitative)): soluble in water, alcohols, acetone
O=C(NP(=O)(NC(CO)C(O)c1ccc([N+](=O)[O-])cc1)NC(CO)C(O)c1ccc([N+](=O)[O-])cc1)c1ccc(Cl)cc1 (stereo not drawn) [Example 12, para-chlorobenzoylamidophosphoric acid di-1-para-nitrophenyl-1,3-propandiol-2-amide]	66	24	64	100	100	48	100	59	100	66	60	87	87	34	70	59	22	63	98	100	Inhibition of growth of phytopathogenic fungi colonies, % Alternaria sobani test field (Alternaria sobani [21]): 46%; Inhibition of growth of phytopathogenic fungi colonies, % Botrytis allii test field (Botrytis allii [22]): 99%; Inhibition of growth of phytopathogenic fungi colonies, % Fusatium monili-forme test field (Fusarium moniliforme [23]): 56%; Inhibition of growth of phytopathogenic fungi colonies, % Verticillium albo--atrum test field (Verticillium albo-atrum [24]): 100%; Inhibition of growth of phytopathogenic fungi colonies, % Fusarium culmorum Tests field (Fusarium culmorum [25]): 61%; Inhibition of growth of phytopathogenic fungi colonies, % Fusarium oxysporum test field (Fusarium oxysporum [26]): 59%; Inhibition of growth of phytopathogenic fungi colonies, % Penicillium cyclopium Tests field (Penicillium cyclopium [27]): 84%; Inhibition of growth of phytopathogenic fungi colonies, % Aspergillus fumigatis Tests field (Aspergillus fumigatis [28]): 80%; Inhibition of growth of phytopathogenic fungi colonies, % Botrytis cinereae test field (Botrytis cinereae [29]): 33%; Inhibition of growth of phytopathogenic fungi colonies, % Venturia inaequalis test field (Venturia inaequalis [30]): 65%; solubility (Solubility (qualitative)): soluble in water, alcohols, acetone
O=C(NP(=O)(Nc1ccc(Br)cc1)Nc1ccc(Br)cc1)c1ccc(Br)cc1 [Example 15]	100	100	100	100	100	100	99	100	100	100	83	100	88	100	100	98	99	98	98	99	Inhibition of growth of phytopathogenic fungi colonies, % Alternaria sobani test field (Alternaria sobani [21]): 98%; Inhibition of growth of phytopathogenic fungi colonies, % Botrytis allii test field (Botrytis allii [22]): 96%; Inhibition of growth of phytopathogenic fungi colonies, % Fusatium monili-forme test field (Fusarium moniliforme [23]): 99%; Inhibition of growth of phytopathogenic fungi colonies, % Verticillium albo--atrum test field (Verticillium albo-atrum [24]): 100%; Inhibition of growth of phytopathogenic fungi colonies, % Fusarium culmorum Tests field (Fusarium culmorum [25]): 100%; Inhibition of growth of phytopathogenic fungi colonies, % Fusarium oxysporum test field (Fusarium oxysporum [26]): 81%; Inhibition of growth of phytopathogenic fungi colonies, % Penicillium cyclopium Tests field (Penicillium cyclopium [27]): 89%; Inhibition of growth of phytopathogenic fungi colonies, % Aspergillus fumigatis Tests field (Aspergillus fumigatis [28]): 80%; Inhibition of growth of phytopathogenic fungi colonies, % Botrytis cinereae test field (Botrytis cinereae [29]): 98%; Inhibition of growth of phytopathogenic fungi colonies, % Venturia inaequalis test field (Venturia inaequalis [30]): 98%; solubility (Solubility (qualitative)): soluble in water, alcohols, acetone
